PMC7961380, “A Systematic Study of the In Vitro Pharmacokinetics and Estimated Human In Vivo Clearance of Indole and Indazole-3-Carboxamide Synthetic Cannabinoid Receptor Agonists Detected on the Illicit Drug Market” (Molecules, 2021)
Read-outs that look alike come from different tables or passages of the source.

What was measured:
[1] = Metabolic stability, pooled human liver microsome incubations; conditions: for Predicted In Vivo Hepatic Clearance, CLH: from pHLM CLint, well-stirred model with plasma fu, Q 21 mL min^−1 kg^−1; for CLint scaled at 0.5 µM / half-life at 0.5 µM: human, microsomes; for CLint scaled at 0.5 µM: pH 7.4, Intrinsic clearance; for half-life at 0.5 µM: pH 7.4, T1/2 (min)
[2] = Short-term plasma stability with and without esterase inhibitors; conditions: 3 h, 37 °C; for remaining at 3 h, 5 µM: human, pH 7.4, Parent Compound Remaining (%)
[3] = Plasma protein binding by equilibrium dialysis; format: in vitro ADME, human; conditions: human, pooled human plasma, pH 7.4, equilibrium dialysis 5 h, 37 °C
Description: Plasma protein binding was assessed by equilibrium dialysis in a 96-well dialysis block (HTDialysis, Ledyard, CT, USA). Dialysis membranes (12–14 kDa) were soaked in deionised water for at least 60 min. Membranes were soaked overnight at 4 °C in ethanol:water 20:80% v/v and then rinsed with deionised water immediately prior to use. […] Spiked plasma (150 µL) was dialysed against isotonic phosphate buffer (pH 7.4) (150 µL) for 5 h at 37 °C with shaking at 100 rpm. Thermal degradation controls for each test compound were kept at 37 °C and 4 °C. Blank control plasma and buffer were included in the incubation. Following incubation, dialysed plasma samples and thermal degradation controls (50 µL) were added to drug-free buffer (50 µL), and dialysed buffer samples (50 µL) were added to drug-free plasma (50 µL). […] Supernatant (150 µL) was added to 50 µL deionised water and samples were analysed by UPLC-MS/MS as described above. Dialysed buffer from each well was tested for protein contamination using BCA protein assay reagent to determine whether membranes had been compromised.
Bu = Analyte/IS ratio determined in buffer side (2) Fraction unbound, fu=(100−% bound)/100

[4] = tested on: pooled human cryopreserved hepatocytes (pHHeps); test: Metabolic stability, pooled human cryopreserved hepatocyte incubations; conditions: for Predicted In Vivo Hepatic Clearance, CLH: from pHHeps CLint, well-stirred model with plasma fu, Q 21 mL min^−1 kg^−1
[5] = as above; conditions: human, hepatocytes; for CLint scaled at 0.5 µM: Intrinsic clearance, pHHeps, alternative hepatocyte cell density 99x10^6 hepatocytes per gram liver; for half-life at 0.5 µM: T1/2 (min), pHHeps 0.25 million cells mL^−1, 0.5 µM, 37 °C, n ≥ 3 ± SD
[6] = pHLM, alternative microsomal scaling factor 32 mg microsomal protein per gram liver
[7] = pHLM, alternative microsomal scaling factor 45 mg microsomal protein per gram liver
[8] = pHLM 0.5 mg mL^−1, 0.5 µM, NADPH, 37 °C, n ≥ 3 ± SD
[9] = pHLM, scaling factor 32 mg microsomal protein per gram liver
[10] = pHLM, scaling factor 45 mg microsomal protein per gram liver
[11] = Esterase Inhibitors, pH 7.4, BNPP and PMSF 500 µM each
[12] = plasma, No Esterase Inhibitors, pH 7.4, pooled human plasma
[13] = 10 µg mL^−1, read-out: PPB (%) (converted)
[14] = plasma, read-out: Fraction Unbound (fu)
[15] = pHHeps, 99x10^6 hepatocytes per gram liver

| Structure (SMILES) | CLint scaled at 0.5 µM [1, 6] [mL/min/kg] | CLint scaled at 0.5 µM [1, 7] [mL/min/kg] | half-life at 0.5 µM [1, 8] [min] | % parent compound remaining, Average ([1]; pHLM, 3 min) [%] | % parent compound remaining, Average ([1]; pHLM, 6 min) [%] | % parent compound remaining, Average ([1]; pHLM, 9 min) [%] | % parent compound remaining, Average ([1]; pHLM, 15 min) [%] | % parent compound remaining, Average ([1]; pHLM, 30 min) [%] | Microsomal Intrinsic Clearance, CLint micr ([1]; pHLM, n ≥ 3 ± SD) | fraction unbound at 5 h, 10 µg mL^−1 [3, 13] | fraction unbound at 5 h, 10 µg mL^−1 [3, 14] | % parent compound remaining, Average ([4]; pHHeps, 3 min) [%] | % parent compound remaining, Average ([4]; pHHeps, 6 min) [%] | % parent compound remaining, Average ([4]; pHHeps, 9 min) [%] | % parent compound remaining, Average ([4]; pHHeps, 15 min) [%] | % parent compound remaining, Average ([4]; pHHeps, 30 min) [%] | % parent compound remaining, Average ([4]; pHHeps, 45 min) [%] | % parent compound remaining, Average ([4]; pHHeps, 60 min) [%] | CLint scaled at 0.5 µM [5] [mL/min/kg] | half-life at 0.5 µM [5] [min] | other results |
| --- | --- | --- | --- | --- | --- | --- | --- | --- | --- | --- | --- | --- | --- | --- | --- | --- | --- | --- | --- | --- | --- |
| C=CCCCn1cc(C(=O)N[C@H](C(=O)OC)C(C)(C)C)c2ccccc21 [(S)-MDMB-4en-PICA (12), methyl 3,3-dimethyl-2-[1-(pent-4-en-1-yl)-1H-indole-3-carboxamido]butanoate] | 137 | 192 | 8.5 ± 1.3 | 77.5 | 62.6 | 50.2 | 28.5 | 5.6 | 0.166 ± 0.024 mL min^−1 mg Microsomal Protein^−1 | 0.035 | 0.035 ± 0.0031 | 93.4 | 83.7 | 80.4 | 74.0 | 51.6 | 34.2 | 25.0 | 197 | 37 ± 6.9 | Predicted In Vivo Hepatic Clearance, CLH [1]: 5.69 ± 0.61 mL/min/kg; Hepatic extraction ratio, EH ([1]; from pHLM incubations): 0.27 ± 0.029; Hepatic extraction ratio, EH [1, 9]: 0.18 ± 0.022; Predicted in vivo hepatic clearance, CLH [1, 9]: 3.88 mL/min/kg; Hepatic extraction ratio, EH [1, 10]: 0.24 ± 0.027; Predicted in vivo hepatic clearance, CLH [1, 10]: 5.07 ± 0.57 mL/min/kg; remaining at 3 h, 5 µM [2, 11]: 89.4 ± 2.3%; remaining at 3 h, 5 µM [2, 12]: 91.5 ± 8.6%; Predicted In Vivo Hepatic Clearance, CLH [4]: 5.46 ± 0.78 mL/min/kg; Hepatic extraction ratio, EH ([4]; from pHHeps incubations): 0.26 ± 0.037; Hepatic extraction ratio, EH [4, 15]: 0.25; Predicted in vivo hepatic clearance, CLH [4, 15]: 5.15 mL/min/kg |
| COC(=O)[C@@H](NC(=O)c1cn(CCCCCF)c2ccccc12)C(C)(C)C [(S)-5F-MDMB-PICA (3), methyl 2-[1-(5-fluoropentyl)-1H-indole-3-carboxamido]-3,3-dimethylbutanoate] | 128 | 181 ± 31.6 | 9 ± 1.4 | 63.9 | 56.3 | 49.2 | 32.1 | 12.8 | 0.156 ± 0.027 mL min^−1 mg Microsomal Protein^−1 | 0.062 | 0.062 ± 0.0007 | 96.7 | 91.2 | 90.7 | 77.0 | 57.6 | 42.5 | 30.9 | 188 | 38 ± 4.6 | Predicted In Vivo Hepatic Clearance, CLH [1]: 8.01 ± 0.84 mL/min/kg; Hepatic extraction ratio, EH ([1]; from pHLM incubations): 0.38 ± 0.04; Hepatic extraction ratio, EH [1, 9]: 0.27 ± 0.034; Predicted in vivo hepatic clearance, CLH [1, 9]: 5.75 mL/min/kg; Hepatic extraction ratio, EH [1, 10]: 0.35 ± 0.038; Predicted in vivo hepatic clearance, CLH [1, 10]: 7.27 ± 0.81 mL/min/kg; remaining at 3 h, 5 µM [2, 11]: 99.5 ± 5.8%; remaining at 3 h, 5 µM [2, 12]: 97.3 ± 6.4%; Predicted In Vivo Hepatic Clearance, CLH [4]: 7.87 ± 0.58 mL/min/kg; Hepatic extraction ratio, EH ([4]; from pHHeps incubations): 0.37 ± 0.027; Hepatic extraction ratio, EH [4, 15]: 0.36 ± 0.027; Predicted in vivo hepatic clearance, CLH [4, 15]: 7.49 ± 0.56 mL/min/kg |
| COC(=O)[C@H](NC(=O)c1nn(Cc2ccc(F)cc2)c2ccccc12)C(C)(C)C [(R)-MDMB-FUBINACA (6)] | 58.2 | 81.8 ± 10.5 | 20 ± 2.5 | 77.3 | 75.0 | 70.2 | 57.2 | 33.3 | 0.071 ± 0.009 mL min^−1 mg Microsomal Protein^−1 | – | – | 93.0 | 82.9 | 77.6 | 70.2 | 53.1 | 57.7 | 41.1 | 221 | 32 ± 5.4 | – |
| CC(C)[C@H](NC(=O)c1nn(CC2CCCCC2)c2ccccc12)C(N)=O [(S)-AB-[…] (11), N-[1-amino-3-methyl-1-oxobutan-2-yl]-1-(cyclohexylmethyl)-1H-indazole-3-carboxamide] | 42.1 | 59.2 | 27 ± 2.9 | – | – | – | – | – | – | 0.028 | 0.028 ± 0.0219 | – | – | – | – | – | – | – | 194 | 39 ± 8.8 | remaining at 3 h, 5 µM [2, 11]: 97.9 ± 7%; remaining at 3 h, 5 µM [2, 12]: 98.2 ± 7.2% |
| COC(=O)[C@H](NC(=O)c1nn(CCCCCF)c2ccccc12)C(C)(C)C [(R)-5F-MDMB-PINACA (2), methyl 2-[1-(5-fluoropentyl)-1H-indazole-3-carboxamido]-3,3-dimethylbutanoate] | – | – | – | 71.1 | 58.2 | 44.4 | 28.9 | 8.7 | 0.176 ± 0.024 mL min^−1 mg Microsomal Protein^−1 | 0.04 | 0.04 ± 0.0058 | 84.1 | 67.3 | 55.7 | 45.8 | 27.3 | 17.9 | 13.6 | – | – | Predicted In Vivo Hepatic Clearance, CLH [1]: 6.52 ± 0.61 mL/min/kg; Hepatic extraction ratio, EH ([1]; from pHLM incubations): 0.31 ± 0.029; T1/2 [1, 8]: 8.0 ± 1.1 min; Intrinsic clearance, CLint [1, 6]: 145 mL/min/kg; Intrinsic clearance, CLint [1, 7]: 204 mL/min/kg; Hepatic extraction ratio, EH [1, 9]: 0.22 ± 0.023; Predicted in vivo hepatic clearance, CLH [1, 9]: 4.53 ± 0.48 mL/min/kg; Hepatic extraction ratio, EH [1, 10]: 0.28 ± 0.027; Predicted in vivo hepatic clearance, CLH [1, 10]: 5.85 ± 0.57 mL/min/kg; Parent Compound Remaining (%), Esterase Inhibitors ([2]; pH 7.4, BNPP and PMSF 500 µM each): 100.1 ± 7.0%; Parent Compound Remaining (%), No Esterase Inhibitors ([2]; pH 7.4, pooled human plasma): 95.9 ± 6.7%; Predicted In Vivo Hepatic Clearance, CLH [4]: 8.16 ± 0.38 mL/min/kg; Hepatic extraction ratio, EH ([4]; from pHHeps incubations): 0.39 ± 0.018; half-life ([4]; pHHep lot HUE50-N): 22.9 ± 1.8 min; half-life ([4]; pHHep lot HUE50-P): 6.5 ± 0.13 min; T1/2 ([4]; pHHeps 0.25 million cells mL^−1, 0.5 µM, 37 °C, n ≥ 3 ± SD): 23 ± 1.8 min; Hepatic extraction ratio, EH [4, 15]: 0.37 ± 0.018; Predicted in vivo hepatic clearance, CLH [4, 15]: 7.78 ± 0.38 mL/min/kg; Intrinsic clearance, CLint ([4]; pHHeps, alternative hepatocyte cell density 99x10^6 hepatocytes per gram liver): 309 ± 23.6 mL/min/kg |
